In patent US9452185B2, “Mesenchymal stem cells and supports for tissue regeneration, repair and reconstruction” (THE TEXAS A&M UNIVERSITY SYSTEM, priority 2009, dated 2016):
Entries after “also recorded” stand apart in the source; their conditions may differ.

Tests used:
Assay type in all cases: cell-based, human
[1] = tested on: hMSCs; experiment: Alkaline phosphatase (ALP) activity of hMSCs in osteogenic media
Experimental: For non-mineralizing osteogenic differentiation, hMSCs were plated in 12-well plates at 100 cells cm^−2. Upon reaching about 70% confluency, the media was changed to osteogenic base media (OBM) containing 50 μg mL^−1 ascorbic acid and 5 mM β-glycerol phosphate and either GW9662 or DMSO. Media was changed every 2 days for 8-10 days following measurement of ALP activity. For this purpose, the monolayer was washed with PBS and then with ALP reaction buffer (100 mM Tris-HCl, pH 9, containing 100 mM KCl and 1 mM MgCl2). One half mL of ALP buffer then 0.5 mL p-nitrophenol phosphate (PNPP) was rapidly added to the wells. ALP activity was measured as the rate of PNPP conversion to p-nitrophenolate by monitoring the absorbance at 405 nm every 30 seconds for 9 minutes using a plate reader. The rates were normalized against cell number and statistically analyzed using one-way analysis of variance (ANOVA) and Tukey post test for multiple comparisons or by Student's t-test, for single, unrelated comparisons.
Early osteogenic differentiation and alkaline phosphatase assays. MSCs were plated in 6-well plates at an initial plating density of 100 cells per cm^2 and cultured in standard complete media for 6 days until semi-confluence (approximately 5,000 cells per cm^2). Osteogenic base media consisting of complete media containing 5 mM β-GP and 50 μg mL^−1 ascorbate-2-phosphate and the appropriate inhibitor or vehicle was then used to induce early osteogenic differentiation. Assays were allowed to proceed for 8-10 days with changes of media every 2 days. ALP assays were performed as previously described (Gunn et al., 2006, Stem Cells 24:986-991).
(§1) In order to characterize the influence of 7AIPM on osteogenic differentiation, hMSC's from two donors were cultured as described elsewhere herein with the addition of varying concentrations of the compound or vehicle to the media. Samples of the media were collected daily for analysis. These samples were analyzed for the presence of OPG and Dkk-1 using ELISA. Alkaline phosphatase activity of the monolayers and cell numbers were measured using a spectrophotometer.

[2] = tested on: osteoprotegerin (OPG); experiment: OPG secretion by ELISA; conditions: 7AIPM in osteogenic culture
Experimental: as §1, with “ELISAs. ELISA for CXCL6, Dkk-1, GROa, GRO13, and OPG were carried out by using nonbiotinylated polyclonal capture antibodies and biotinylated detection antibodies that were commercially acquired on coated 96-well plates The biotinylated […] antibodies were detected by using horseradish peroxidase-conjugated streptavidin and TMB substrate. ELISA for IL-lb were performed by using commercially acquired kits. In” for “In”

[3] = tested on: Dkk-1; experiment: Dkk-1 secretion by ELISA; conditions: 7AIPM in osteogenic culture
Experimental: as §1, with “ELISAs. ELISA for CXCL6, Dkk-1, GROa, GRO13, and OPG were carried out by using nonbiotinylated polyclonal capture antibodies and biotinylated detection antibodies that were commercially acquired on coated 96-well plates The biotinylated […] antibodies were detected by using horseradish peroxidase-conjugated streptavidin and TMB substrate. ELISA for IL-lb were performed by using commercially acquired kits. In” for “In”

ALP activity ([1]; osteogenic media without dexamethasone, 8 days)	Substance	ALP activity ([1]; MSC monolayers, osteogenic medium with increasing doses, four days)	OPG concentration [2]	Dkk-1 concentration [3]
attenuated	Dldc-1: Wnt inhibitor added to block canonical Wnt signaling			
	7-azaindolyl-pyrazinylmaleimide [7AIPM]	increased; also recorded: biphasic dose dependant effect	increased	decrease
